From patent publication US9376425B2, “Heterocyclic compounds as MDM2 inhibitors for the treatment of cancer” (AMGEN INC., priority 2011, dated 2016)
Where a name gives a salt, the structure may show the parent alone.

Target: T1, human MDM2 (GST-hMDM2 1-188), interaction with biotinylated-p53 (1-83) (Homo sapiens, UniProt Q00987)
T1 construct: Amino acid residues 1-188 of human MDM2 were expressed; made in house; host or cells: Escherichia coli
Assay: improved HTRF assay (HTRF2 assay), inhibition of HDM2-p53 interaction
Format: binding
Conditions: 0.2 nM GST-hMDM2, 0.5 nM biotinylated-p53, 100 mM KF
Procedure, shortened: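 Time-resolved fluorescence (HTRF) read after >4 h equilibration with SA-XLent/anti-GST cryptate/KF detection reagents. Reaction: compound plus GST-hMDM2 for 20 min at room temperature, then E. coli-expressed biotinylated p53 residues 1-83 for 60 min, 2% DMSO final. Inhibition expressed versus nutlin-3.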

T1 sequence (Q00987 1-188): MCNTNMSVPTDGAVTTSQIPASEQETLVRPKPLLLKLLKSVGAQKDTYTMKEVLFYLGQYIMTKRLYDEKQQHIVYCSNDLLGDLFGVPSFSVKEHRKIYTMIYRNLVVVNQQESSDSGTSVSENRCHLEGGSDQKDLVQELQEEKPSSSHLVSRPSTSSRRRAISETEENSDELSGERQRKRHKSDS

In the case of `CC[C@@H](CN(C)S(=O)(=O)C1CC1)N1C(=O)[C@H](Cc2nnn[nH]2)O[C@H](c2cccc(Cl)c2)[C@H]1c1ccc(Cl)cc1` (single isomer, unassigned) [Example 244, N-((S)-2-((2S,5R,6R)-2-((1H-tetrazol-5-yl)methyl)-6-(3-chlorophenyl)-5-(4-chlorophenyl)-3-oxomorpholino)butyl)-N-methylcyclopropanesulfonamide or N-((S)-2-((2R,5R,6R)-2-((1H-tetrazol-5-yl)methyl)-6-(3-chlorophenyl)-5-(4-chlorophenyl)-3-oxomorpholino)butyl)-N-methylcyclopropanesulfonamide], the IC50 is reported as 1 nM.
Work on `CC[C@@H](CCS(=O)(=O)C(C)(C)C)N1C(=O)[C@@H](CC(=O)O)O[C@H](c2cccc(Cl)c2)[C@H]1c1ccc(Cl)cc1` (single isomer, unassigned) [Example 221, 2-((2R,5R,6R)-4-((S)-1-(tert-butylsulfonyl)pentan-3-yl)-6-(3-chlorophenyl)-5-(4-chlorophenyl)-3-oxomorpholin-2-yl)acetic acid or 2-((2S,5R,6R)-4-((S)-1-(tert-butylsulfonyl)pentan-3-yl)-6-(3-chlorophenyl)-5-(4-chlorophenyl)-3-oxomorpholin-2-yl)acetic acid] yielded an IC50 of 12 nM.
In the case of `O=C(O)C[C@H]1O[C@H](c2cccc(Cl)c2)[C@@H](c2ccc(Cl)c(F)c2)N([C@H](CN(c2ccccc2F)S(=O)(=O)C2CC2)C2CC2)C1=O` (single isomer, unassigned) [Example 315, 2-((2R,5R,6R)-5-(4-Chloro-3-fluorophenyl)-6-(3-chlorophenyl)-4-((S)-1-cyclopropyl-2-(N-(2-fluorophenyl)cyclopropanesulfonamido)ethyl)-3-oxomorpholin-2-yl)acetic acid or 2-((2S,5R,6R)-5-(4-chloro-3-fluorophenyl)-6-(3-chlorophenyl)-4-((S)-1-cyclopropyl-2-(N-(2-fluorophenyl)cyclopropanesulfonamido)ethyl)-3-oxomorpholin-2-yl)acetic acid], the IC50 is reported as < 1 nM.
In the case of `CC[C@@H](CN(c1ccccc1F)S(=O)(=O)C1CC1)N1C(=O)[C@@H]([C@@H](C)C(=O)O)O[C@H](c2cccc(Cl)c2)[C@H]1c1ccc(Cl)cc1` (single isomer, unassigned) [Example 252], the IC50 is reported as 1 nM.
`CC[C@@H](CS(=O)(=O)C(C)(C)C)N1C(=O)C(CN)O[C@H](c2cccc(Cl)c2)[C@H]1c1ccc(Cl)cc1` (mixture of isomers) [Example 378, (2R,5R,6R)-2-(Aminomethyl)-4-((S)-1-(tert-butylsulfonyl)butan-2-yl)-6-(3-chlorophenyl)-5-(4-chlorophenyl)morpholin-3-one hydrochloride and (2S,5R,6R)-2-(aminomethyl)-4-((S)-1-(tert-butylsulfonyl)butan-2-yl)-6-(3-chlorophenyl)-5-(4-chlorophenyl)morpholin-3-one hydrochloride] gave an IC50 of 142 nM.
For `O=C1[C@@H](Cc2ncn[nH]2)O[C@H](c2cccc(Cl)c2)[C@@H](c2ccc(Cl)cc2)N1[C@H](CN(c1ccccc1F)S(=O)(=O)C1CC1)C1CC1` (single isomer, unassigned) [Example 397, N-((S)-2-((2R,5R,6R)-2-((1H-1,2,4-Triazol-5-yl)methyl)-6-(3-chlorophenyl)-5-(4-chlorophenyl)-3-oxomorpholino)-2-cyclopropylethyl)-N-(2-fluorophenyl)cyclopropanesulfonamide or N-((S)-2-((2S,5R,6R)-2-((1H-1,2,4-triazol-5-yl)methyl)-6-(3-chlorophenyl)-5-(4-chlorophenyl)-3-oxomorpholino)-2-cyclopropylethyl)-N-(2-fluorophenyl)cyclopropanesulfonamide], the IC50 was 1 nM.
For `CC[C@@H]([C@H](C)S(=O)(=O)C(C)C)N1C(=O)[C@@H](CC(=O)O)O[C@H](c2cccc(Cl)c2)[C@H]1c1ccc(Cl)cc1` (single isomer, unassigned) [Example 413], the IC50 was < 1 nM.
In the case of `C[C@@H](CS(=O)(=O)C(C)(C)C)N1C(=O)[C@@H](CC(=O)NS(C)(=O)=O)O[C@H](c2cccc(Cl)c2)[C@H]1c1ccc(Cl)cc1` (single isomer, unassigned) [Example 238], the IC50 is reported as 1 nM.
`CC[C@@H](CS(=O)(=O)C(C)(C)C)N1C(=O)[C@@H](Cc2nnn[nH]2)O[C@H](c2cccc(Cl)c2)[C@H]1c1ccc(Cl)cc1` [Example 382, (2R,5R,6R)-2-((1H-Tetrazol-5-yl)methyl)-4-((S)-1-(tert-butylsulfonyl)butan-2-yl)-6-(3-chlorophenyl)-5-(4-chlorophenyl)morpholin-3-one] was tested, and the IC50 was < 1 nM.
With `NS(=O)(=O)C[C@H]1O[C@H](c2cccc(Cl)c2)[C@@H](c2ccc(Cl)cc2)N([C@H](CN(c2ccccc2F)S(=O)(=O)C2CC2)C2CC2)C1=O` (single isomer, unassigned) [Example 409, N-((S)-2-((2R,3R,6S)-2-(3-Chlorophenyl)-3-(4-chlorophenyl)-5-oxo-6-(sulfamoylmethyl)morpholino)-2-cyclopropylethyl)-N-(2-fluorophenyl)cyclopropanesulfonamide or N-((S)-2-((2S,3R,6S)-2-(3-chlorophenyl)-3-(4-chlorophenyl)-5-oxo-6-(sulfamoylmethyl)morpholino)-2-cyclopropylethyl)-N-(2-fluorophenyl)cyclopropanesulfonamide] the IC50 was < 1 nM.
Work on `CC[C@@H](CS(=O)(=O)C(C)(C)C)N1C(=O)[C@@H](CC(=O)O)O[C@H](c2cccc(Cl)c2)[C@@]1(C)c1ccc(Cl)cc1` (single isomer, unassigned) [Example 162, 2-((2R,5R,6R)-4-((S)-1-(tert-butylsulfonyl)butan-2-yl)-6-(3-chlorophenyl)-5-(4-chlorophenyl)-5-methyl-3-oxomorpholin-2-yl)acetic acid or 2-((2S,5R,6R)-4-((S)-1-(tert-butylsulfonyl)butan-2-yl)-6-(3-chlorophenyl)-5-(4-chlorophenyl)-5-methyl-3-oxomorpholin-2-yl)acetic acid] yielded an IC50 of 6250 nM.
Work on `CC[C@@H](CS(=O)(=O)C(C)(C)C)N1C(=O)[C@@H](Cc2nnnn2C)O[C@H](c2cccc(Cl)c2)[C@H]1c1ccc(Cl)cc1` (single isomer, unassigned) [Example 400, (2R,5R,6R)-4-((S)-1-(tert-Butylsulfonyl)butan-2-yl)-6-(3-chlorophenyl)-5-(4-chlorophenyl)-2-((1-methyl-1H-tetrazol-5-yl)methyl)morpholin-3-one or (2R,5R,6R)-4-((S)-1-(tert-butylsulfonyl)butan-2-yl)-6-(3-chlorophenyl)-5-(4-chlorophenyl)-2-((2-methyl-2H-tetrazol-5-yl)methyl)morpholin-3-one] yielded an IC50 of 37 nM.
In the case of `CC[C@@H](CS(=O)(=O)N1CCC[C@@H]1C)N1C(=O)[C@@H](CC(=O)O)O[C@H](c2cccc(Cl)c2)[C@H]1c1ccc(Cl)cc1` (single isomer, unassigned) [Example 209, 2-((2R,5R,6R)-6-(3-chlorophenyl)-5-(4-chlorophenyl)-4-((S)-1-(((S)-2-methylpyrrolidin-1-yl)sulfonyl)butan-2-yl)-3-oxomorpholin-2-yl)acetic acid or 2-((2S,5R,6R)-6-(3-chlorophenyl)-5-(4-chlorophenyl)-4-((S)-1-(((S)-2-methylpyrrolidin-1-yl)sulfonyl)butan-2-yl)-3-oxomorpholin-2-yl)acetic acid], the IC50 is reported as 7 nM.
